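In this assay, cells in 96-well plates receive the compound at five concentrations for 48 hours. Endpoints are linearly interpolated between the surrounding concentrations. GI50 is the concentration that inhibits growth by half.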 Activity calls are given as the source filed them. Cut-off read from the data, not from the text of the source: active = GI50 up to about 1.1 µM and inactive = higher.
Tests used:
Experiment in all cases: NCI anticancer screen, dose series, 48 h
SK-MEL-28 = test system: SK-MEL-28
PC-3 = test system: PC-3
COLO 205 = test system: COLO 205
SK-MEL-5 = test system: SK-MEL-5
SNB-19 = test system: SNB-19
CCRF-CEM = test system: CCRF-CEM
T47D = test system: T47D
UACC-257 = test system: UACC-257
NCI-H226 = test system: NCI-H226
SK-MEL-2 = test system: SK-MEL-2
OVCAR-5 = test system: OVCAR-5
MDA-MB-231 = test system: MDA-MB-231
MDA-N = test system: MDA-N
EKVX = test system: EKVX
NCI/ADR-RES = test system: NCI/ADR-RES
SN12C = test system: SN12C
SW-620 = test system: SW-620
BT-549 = test system: BT-549
OVCAR-4 = test system: OVCAR-4
UO-31 = test system: UO-31

Measured: GI50

COC(=O)c1ccccc1C1=C([N+](=O)[O-])C(c2cccc(Br)c2)C(C#N)=C(N)O1 (stereo unspecified)
inactive: SK-MEL-28 52.6 µM | PC-3 40.6 µM | COLO 205 33 µM | SK-MEL-5 86.5 µM | SNB-19 91.6 µM | CCRF-CEM 20.8 µM | T47D 28.3 µM | UACC-257 36.1 µM | NCI-H226 > 100 µM | SK-MEL-2 > 100 µM | OVCAR-5 > 100 µM | MDA-MB-231 73.8 µM | MDA-N 44.6 µM | EKVX 36.1 µM | NCI/ADR-RES 23.3 µM | SN12C 38 µM | SW-620 25.8 µM

C/C(Nc1ccc(Cl)cc1Cl)=C1/CCOC1=O
inactive: SK-MEL-28 > 100 µM | PC-3 > 100 µM | COLO 205 > 100 µM | SK-MEL-5 > 100 µM | SNB-19 26.2 µM | CCRF-CEM 25.3 µM | T47D 46.5 µM | BT-549 24.1 µM | UACC-257 > 100 µM | NCI-H226 > 100 µM | MDA-MB-231 19.9 µM | EKVX 10.4 µM | NCI/ADR-RES 77.6 µM | SN12C 41.5 µM | OVCAR-4 > 100 µM | SW-620 > 100 µM | UO-31 40.8 µM

Cc1cc(S(=O)(=O)Nc2n[nH]c(Nc3ccccc3)n2)c(S)cc1Cl
inactive: SK-MEL-28 > 10 µM | PC-3 > 10 µM | COLO 205 > 10 µM | SK-MEL-5 > 10 µM | SNB-19 > 10 µM | CCRF-CEM > 10 µM | T47D > 10 µM | BT-549 > 10 µM | UACC-257 > 10 µM | NCI-H226 > 10 µM | SK-MEL-2 > 10 µM | OVCAR-5 > 10 µM | MDA-MB-231 > 10 µM | EKVX > 10 µM | NCI/ADR-RES > 10 µM | SN12C > 10 µM | OVCAR-4 > 10 µM | SW-620 > 10 µM | UO-31 > 10 µM

CCCNC(=O)N(C)C(=O)N1N=C(c2ccccc2)C1c1ccccc1 (stereo unspecified)
inactive: SK-MEL-28 > 100 µM | PC-3 56.9 µM | COLO 205 54.2 µM | SK-MEL-5 87.3 µM | SNB-19 > 100 µM | CCRF-CEM 17.7 µM | T47D > 100 µM | UACC-257 82.6 µM | NCI-H226 > 100 µM | SK-MEL-2 > 100 µM | MDA-MB-231 > 100 µM | MDA-N 95.1 µM | EKVX > 100 µM | NCI/ADR-RES > 100 µM | SN12C 37 µM | OVCAR-4 46.1 µM | SW-620 > 100 µM | UO-31 50.4 µM

CN1CCN(Cn2nc(-c3ccccc3)n(/N=C/c3ccc(-c4ccc(Cl)cc4Cl)o3)c2=S)CC1
inactive: SK-MEL-28 12.1 µM | PC-3 8.43 µM | SK-MEL-5 7.71 µM | CCRF-CEM 4.17 µM | T47D 15.5 µM | UACC-257 18 µM | NCI-H226 20 µM | SK-MEL-2 20.7 µM | OVCAR-5 15.2 µM | MDA-MB-231 13.9 µM | MDA-N 13.4 µM | EKVX 30.1 µM | NCI/ADR-RES 16 µM | OVCAR-4 16.3 µM | SW-620 11.8 µM | UO-31 14.8 µM

Cc1ccc(S(=O)(=O)Nn2c(S)c(C#N)c(-c3ccc([N+](=O)[O-])cc3)c(C#N)c2=O)cc1
inactive: SK-MEL-28 32.6 µM | PC-3 27.2 µM | COLO 205 29.2 µM | SK-MEL-5 12 µM | CCRF-CEM 23.2 µM | BT-549 12.8 µM | UACC-257 40.8 µM | NCI-H226 40.6 µM | SK-MEL-2 23 µM | OVCAR-5 72.9 µM | MDA-MB-231 17.7 µM | MDA-N 26.1 µM | EKVX 32 µM | NCI/ADR-RES 33 µM | SN12C 19.1 µM | OVCAR-4 24.7 µM | SW-620 19.2 µM

O=C1C=CC2(C=C1)CCC(=O)O2
inactive: SK-MEL-28 16 µM | PC-3 12.6 µM | COLO 205 11 µM | SK-MEL-5 16.3 µM | SNB-19 17.5 µM | CCRF-CEM 5.82 µM | BT-549 18.5 µM | UACC-257 18.7 µM | NCI-H226 19.2 µM | SK-MEL-2 16.1 µM | OVCAR-5 22.7 µM | MDA-MB-231 10.1 µM | MDA-N 27.9 µM | EKVX 17.9 µM | NCI/ADR-RES 32.9 µM | SN12C 16.1 µM | OVCAR-4 14.8 µM | SW-620 11.6 µM | UO-31 15.1 µM

O=c1c2nc[nH]c2n(-c2ccccc2)c(=S)n1-c1ccccc1
inactive: SK-MEL-28 > 100 µM | PC-3 > 100 µM | COLO 205 > 100 µM | SK-MEL-5 > 100 µM | CCRF-CEM > 100 µM | T47D > 100 µM | BT-549 > 100 µM | UACC-257 > 100 µM | NCI-H226 > 100 µM | SK-MEL-2 > 100 µM | OVCAR-5 > 100 µM | MDA-MB-231 > 100 µM | EKVX > 100 µM | NCI/ADR-RES > 100 µM | SN12C > 100 µM | OVCAR-4 > 100 µM | SW-620 > 100 µM | UO-31 > 100 µM

Source: ChEMBL document CHEMBL1201862, “PubChem BioAssay data set” (2004)
